This experiment deals with T1, human serum albumin (HSA) (Homo sapiens, UniProt P02768).
T1 construct: gene ALB; native full-length HSA, essentially fatty acid free; also measured on GST-HSA100 (A194 to E294)
The experiment can be described thus: tryptophan fluorescence quenching titration (Stern-Volmer and Hill analysis). Format: binding.

T1 sequence (P02768 25-609): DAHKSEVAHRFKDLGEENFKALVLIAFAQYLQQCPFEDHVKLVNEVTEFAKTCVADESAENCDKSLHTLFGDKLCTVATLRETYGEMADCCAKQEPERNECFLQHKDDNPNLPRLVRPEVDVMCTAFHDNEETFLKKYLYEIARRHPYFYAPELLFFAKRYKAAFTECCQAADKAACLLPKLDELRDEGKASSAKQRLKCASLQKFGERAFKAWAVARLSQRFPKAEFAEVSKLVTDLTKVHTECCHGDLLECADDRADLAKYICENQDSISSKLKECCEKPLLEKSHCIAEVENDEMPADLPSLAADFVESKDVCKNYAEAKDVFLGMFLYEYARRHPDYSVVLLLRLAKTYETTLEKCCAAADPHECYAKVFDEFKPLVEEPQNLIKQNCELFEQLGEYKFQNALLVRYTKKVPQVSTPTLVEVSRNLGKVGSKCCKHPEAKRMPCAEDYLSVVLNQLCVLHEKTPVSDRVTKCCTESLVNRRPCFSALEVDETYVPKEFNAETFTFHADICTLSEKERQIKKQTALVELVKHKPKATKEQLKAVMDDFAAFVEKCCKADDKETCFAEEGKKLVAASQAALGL

Take `O=C1Nc2ccc(Cl)cc2[C@@](C#CC2CC2)(C(F)(F)F)O1` [2a, efavirenz]: the “Efavirenz / HSA” value is recorded as 1.89±0.04 10^−4 molL^−1.

The record behind these values is PMC3579865, “An Albumin-Derived Peptide Scaffold Capable of Binding and Catalysis” (PLoS ONE, 2013).
